Values after ≈ are worked out from the molar mass of the structure shown.

In ChEMBL document CHEMBL3045470, “Effect of 2-allylphenol against Botrytis cinerea Pers., and its residue in tomato fruit” (Crop Prot, 2007) one finds EC50 data, which are given here for 2 molecules.

What all share (type): functional, organism-based
For assay [1], the system named is Alternaria solani. The assay is described as follows: Antifungal activity against Alternaria solani incubated as 10% EC formulation.
The test system of assay [2] is Botrytis cinerea. The assay is described as follows: Antifungal activity against Botryotinia fuckeliana incubated as 10% EC formulation.
Assay [3] relates to Fulvia fulva. The assay is described as follows: Antifungal activity against Passalora fulva incubated as 10% EC formulation.
For assay [4], the system named is Botrytis cinerea. The experiment in a line: Antifungal activity against Botryotinia fuckeliana incubated as 50% WP formulation.
Assay [5] relates to Fulvia fulva. The experiment in a line: Antifungal activity against Passalora fulva incubated as 50% WP formulation.
Assay [6] has as its system Alternaria solani. The experiment in a line: Antifungal activity against Alternaria solani incubated as 50% WP formulation.

`C=CCc1ccccc1O` [2-ALLYLPHENOL]: the half-maximal effective concentration (EC50) (in general, the concentration needed to bring the measured effect to its halfway point) in the assay on Alternaria solani [1] is 31.3 µg/mL (≈ 233 µM); with Botrytis cinerea [2], 21.7 µg/mL (≈ 162 µM); in the assay with Fulvia fulva [3], 52.2 µg/mL (≈ 389 µM).
Turning to `CC(C)NC(=O)N1CC(=O)N(c2cc(Cl)cc(Cl)c2)C1=O` [IPRODIONE], the figures for the concentration for a half-maximal effect (EC50) with Botrytis cinerea [4], with Fulvia fulva [5] and with Alternaria solani [6] were 58.6 µg/mL (≈ 177 µM), 48.9 µg/mL (≈ 148 µM) and 56 µg/mL (≈ 169 µM), respectively.
